According to ChEMBL document CHEMBL1136113, “Synthesis and inhibitory activity of ubiquinone-acetogenin hybrid inhibitor with bovine mitochondrial complex I” (Bioorg Med Chem Lett, 2003):

The compounds below were run against Mitochondrial complex I; NADH oxidoreductase (Bos taurus, UniProt P25708+P52505) (assay: Inhibition of complex I activity was determined by NADH oxidase assay using bovine heart submitochondrial particles.).
Format: protein-complex assay

Sequence of Mitochondrial complex I; NADH oxidoreductase (P25708 21-464 limits assumed, other chains not shown): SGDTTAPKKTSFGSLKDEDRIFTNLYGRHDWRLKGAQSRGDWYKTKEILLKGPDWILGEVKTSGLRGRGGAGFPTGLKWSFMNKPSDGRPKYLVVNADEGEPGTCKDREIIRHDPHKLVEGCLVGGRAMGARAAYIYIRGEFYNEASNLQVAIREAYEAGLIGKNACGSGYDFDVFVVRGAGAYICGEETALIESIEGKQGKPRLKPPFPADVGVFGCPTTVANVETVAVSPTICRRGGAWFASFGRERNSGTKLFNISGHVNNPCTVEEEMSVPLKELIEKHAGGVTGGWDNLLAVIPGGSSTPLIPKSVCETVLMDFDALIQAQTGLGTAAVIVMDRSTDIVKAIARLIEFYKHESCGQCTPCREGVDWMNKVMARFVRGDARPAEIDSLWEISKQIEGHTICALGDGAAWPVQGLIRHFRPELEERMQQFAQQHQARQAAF

Point of comparison: `CCCCCCCCCC[C@@H](O)[C@H]1CC[C@H]([C@H]2CC[C@H]([C@H](O)CCCCCCCCCCCCc3c(C)c(OC)c(OC)c(OC)c3OC)O2)O1`, IC50 280 nM. Against it:
- CCCCC[C@@H](O)[C@H]1CC[C@H]([C@H]2CC[C@H]([C@H](O)CCCCC)O2)O1 — 16-fold higher, 4500 nM
- CCCCCCCCCC[C@@H](O)[C@H]1CC[C@H]([C@H]2CC[C@H]([C@H](O)CCCCCCCCCCCCC3=C(C)C(=O)C(OC)=C(OC)C3=O)O2)O1 — 230-fold lower, 1.2 nM
- CCCCCCCCCC[C@@H](O)[C@@H]1CC[C@@H]([C@@H]2CC[C@@H]([C@H](O)CCCCCCCCCC(O)CC3=CC(C)OC3=O)O2)O1 (stereo not given in full) [BULLATACIN] — 310-fold lower, 0.9 nM
- CCCCCCCCCC[C@@H](O)[C@H]1CC[C@H]([C@H]2CC[C@H]([C@H](O)CCCCCCCCCCCCC3=C[C@H](C)OC3=O)O2)O1 [ISODESAACETYLUVARICIN] — 310-fold lower, 0.9 nM
